79 compounds from the METLIN SMRT retention time set (Domingo-Almenara et al. 2019) can be followed below.

This series is described as follows: gradient 5% acetonitrile 3 min, to 50% in 2 min, to 85% in 15 min, held 3 min, 100 µL/min. The note with it: column: Zorbax Extend-C18 2.1 x 50 mm; eluents: water / acetonitrile, 0.1% formic acid. Summed up: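 Data were gathered over 3 months by HPLC coupled to a quadrupole time-of-flight mass spectrometer, operated in positive and negative ionization mode. Mixtures of ~100 pure standards ran on a Zorbax Extend-C18 column (2.1 × 50 mm, 1.8 μm) at 100 μL/min, with water and acetonitrile each containing 0.1% formic acid and dead and dwell volumes of 40 μL and 900 μL. Retention time was read from adduct peaks picked by computer and checked manually.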
The compound `O=C(NC1CC1)c1cc(=O)[nH]c2ccccc12` came in with an RP-LC retention time of 587 s.
For `CCN1C(=O)C(C)(C(=O)Nc2cc(OC)ccc2OC)Oc2cccnc21` (centres undefined), the RP-LC retention time turned out to be 959 s.
The compound `O=S(=O)(c1cccnc1)N1CCN(c2ccc(-c3cccs3)nn2)CC1` registered an RP-LC retention time of 692 s.
The compound `CC(NC(=O)c1ccccc1)c1nc(-c2ccc3oc(-c4ccccc4)nc3c2)no1` (centres undefined) showed an RP-LC retention time of 1090 s.
As for `COc1ccc(-c2noc(Cn3nc(-c4cccc(OC)c4)ccc3=O)n2)cc1`, the figure is 974 s.
Turning to `CCc1noc(NC(C)=O)c1-c1ccc(C)c(S(=O)(=O)NCc2cccc(OC)c2)c1`, the RP-LC retention time was found to be 807 s.
The same measure for `COC[C@@H](c1ccc(C(F)(F)F)cc1)N1CCN(C2(C)CCN(C(=O)c3c(C)ncnc3C)CC2)C[C@@H]1C`: 744 s; for `CC(=O)Nc1ccc2c(c1)CN(C(=O)c1ccc(C#N)cc1)C(C(=O)N(C)C)C2` (centres undefined): 619 s.
`Cc1sc2ccn(CC(C)C)c(=O)c2c1C(=O)NC(C)c1ccc(F)cc1` (centres undefined) displayed an RP-LC retention time of 1030 s.
As for `CN(C)C(=O)c1cccc(C(=O)N(C)C)n1`, the figure is 541 s; as for `Cc1csc(-c2cc(S(=O)(=O)NCc3ccc(OC(C)C)cc3)c(C)s2)n1`, 1060 s.
The same measure for `COc1cccc(NC(=O)NC2CCN(c3cc(C)cc(C)c3)C2=O)c1` (centres undefined): 870 s; for `CC(C)S(=O)(=O)c1ccc(CC(=O)Nc2cc(-c3cccs3)nn2CCO)cc1`: 701 s; for `CCOC(=O)c1sc(NC(=O)CN2C(=O)c3ccccc3C2=O)c(SC#N)c1C`: 912 s.
On to `COc1ccc(N2CC(c3noc(-c4cc(F)cc(F)c4)n3)CC2=O)cc1` (centres undefined), for which the RP-LC retention time was found to be 969 s.
The same measure for `CCc1cc(C2CCCN2C(=O)Nc2ccccc2C)on1` (centres undefined): 780 s.
As for `O=C(c1ccc(Cl)c(Cl)c1)N1CCN(c2ccc(-c3ccco3)nn2)CC1`, the figure is 733 s; as for `CCCCC(=O)N1CCN(c2nc3ccccc3nc2C(F)(F)F)CC1`, 1080 s; as for `CCOc1ccc(-c2nc3ncccn3c2NCc2ccc(C)cc2)cc1`, 800 s.
As for `COc1ccc(NC(=O)NC2CCN(c3cc(N4CCCC4)cnn3)C2)cc1F` (centres undefined), the figure is 625 s; as for `CCn1c(=O)c2ccccc2n(Cc2nc(-c3ccc(Cl)cc3)no2)c1=O`, 1090 s.
`Cc1ccc(Nc2nc(C)cc(N3CCN(S(=O)(=O)c4ccc5c(c4)OCCO5)CC3)n2)cc1` had an RP-LC retention time of 760 s.
As for `CN(C)C(=O)c1ccc2c(c1)nc(CN1CCN(C(=O)c3ccco3)CC1)n2C`, the figure is 575 s.
As for `COc1ccc(N2CCN(c3nccc4ccc(C(=O)NCCC5=CCCCC5)cc34)CC2)cc1`, the figure is 888 s.
For `CCOc1ccccc1NC(=O)C1CCN(c2cncnc2N2CCCCC2)CC1`, the RP-LC retention time was determined as 742 s.
As for `COCCNC(=O)c1ccc2c(c1)CCCN2S(=O)(=O)c1ccccc1`, the figure is 767 s.
The same measure for `Cc1c(Cl)cccc1NC(=O)N(C)CC1CCOC1` (centres undefined): 720 s; for `CC1(C)C(=O)Nc2ccc(S(=O)(=O)N3CCC(c4noc(-c5ccccn5)n4)C3)cc21` (centres undefined): 705 s; for `CCOc1ccc([C@H]2N(c3cc(C)on3)C(=O)[C@@H]3CCCN32)cc1`: 743 s.
The same measure for `COc1cc(NC(=O)N2CCC(N3CCN(Cc4ccc(C)cc4)C(=O)C3=O)CC2)cc(OC)c1`: 758 s; for `CC(=O)N1CCCC1c1nc2ccccc2n1CC(=O)N1CCCC1` (centres undefined): 574 s.
On to `Cc1cc(=O)n(CC(=O)Nc2ccccc2F)c(N2CCc3ccccc3C2)n1`, for which the RP-LC retention time amounted to 802 s.
Take `Fc1ccccc1-c1nc(-c2ccnc(N3CCCC3)c2)no1`: the RP-LC retention time came to 702 s.
The same measure for `Cc1noc(-c2cccc(OC3CN(C(=O)NC4CCCC4)C3)c2)n1`: 850 s; for `COc1ccc(CCN2CC(=O)N3Cc4[nH]c5ccccc5c4C[C@H]3C2=O)cc1OC`: 761 s.
With `COc1ccc(-c2nc(-c3ccc4c(c3)oc(=O)n4C(C)C)no2)cc1`, the RP-LC retention time came to 1070 s.
The compound `COc1cccc(NC(=O)N(Cc2nnc3n2CCCCC3)c2cccc(OC)c2)c1` showed an RP-LC retention time of 718 s.
The same measure for `CCC(NC(=O)C1CCCN(c2cnc3nccnc3c2)C1)c1ccc(OC)cc1` (centres undefined): 735 s.
The same measure for `NC(=O)C1CCN(C(=O)Cc2csc(NC(=O)Nc3ccccc3)n2)CC1`: 622 s; for `COc1cc(Cl)c(C)cc1-n1ccn(Cc2c(F)cccc2Cl)c(=O)c1=O`: 855 s.
As for `O=C(CC1CCCCC1)N1CCC(c2ccncc2)CC1`, the figure is 622 s; as for `CN1CCCc2cc(C(=O)NCc3ccccc3F)sc21`, 915 s.
As for `COc1ccc(NC(=O)c2ccc(-n3cnc(NC(=O)C4CC4)c3)cc2)cc1Cl`, the RP-LC retention time is 780 s.
`CCOc1ccc(NC(=O)c2cn(C)nc2S(=O)(=O)N2CCC(C)CC2)cc1` showed an RP-LC retention time of 1060 s.
As for `O=C([C@@H]1C[C@H](Oc2ccccc2)CN1C(=O)c1cccs1)N1CCCC1`, the figure is 767 s; as for `O=C(Nc1cccc(F)c1)C1CCCN(c2ccc3cc(S(=O)(=O)N4CCCCC4)ccc3n2)C1` (centres undefined), 908 s.
The same measure for `Cn1cccc1-c1cc2n(n1)CCC(=O)N2CCCC(=O)NCCCN1CCCCCC1`: 607 s; for `O=C(c1n[nH]c2ccccc12)N1CCC(c2noc(C3CC3)n2)C1` (centres undefined): 720 s.
`COCCCNC(=O)C(C)n1c(=O)c(C(F)(F)F)nc2ccccc21` (centres undefined) gave an RP-LC retention time of 854 s.
The same measure for `Cc1nc2c(sc3nc(-c4ccccc4)ccc32)c(=O)n1CC(=O)Nc1ccc(C(C)C)cc1`: 1200 s.
Turning to `COc1cc(NC(=O)Cn2nc3c(N4CCSCC4)nccn3c2=O)cc(OC)c1`, the RP-LC retention time was 795 s.
In turn, `CCOc1ccc(C(Nc2ccccn2)c2ccc3ccc(C)nc3c2O)cc1C` (centres undefined) registered an RP-LC retention time of 811 s.
Compound `CCOCC(=O)N1CCC2(CC1)C(=O)N(C)c1ccccc12` displayed an RP-LC retention time of 694 s.
As for `CCC(CC)NC(=O)c1c(OCC2CC2)cc(=O)n2c1CCCCC2`, the figure is 754 s.
The same measure for `O=C(CSc1nnc(-c2ccccc2)o1)Nc1nsc(-c2ccccc2)n1`: 793 s; for `COCCCNC(=O)C1CCN(c2cnc3nc(C)c(C)nc3c2)CC1`: 574 s.
`O=C(CCc1nc(CSc2nnc(-c3ccccc3)o2)no1)Nc1ccc(Cl)cc1` displayed an RP-LC retention time of 949 s.
For the compound `CCCNC(=O)NCCC1CCN(S(=O)(=O)c2ccc(C)cc2)CC1`, the RP-LC retention time turned out to be 742 s.
As for `Cc1ncsc1CN1CCn2c(nnc2[C@@H]2C[C@@H](O)CN2Cc2cccnc2)C1`, the figure is 544 s; as for `O=S(=O)(c1ccc2nncn2c1)N(Cc1cccc(F)c1)c1cccc(F)c1`, 851 s.
Compound `CCCN1C(=O)c2c(C(=O)OC)ncn2CC1(C)C(=O)NCc1ccccc1` (centres undefined) had an RP-LC retention time of 640 s.
As for `O=C(Nc1ccc2c(c1)OCCO2)N1CCCC(c2nn[nH]n2)C1` (centres undefined), the figure is 634 s.
As to `CCOc1ccc(CNC(=O)C2CCN(S(=O)(=O)c3cn(C(C)C)cn3)CC2)cc1OC`, the RP-LC retention time was found to be 704 s.
The same measure for `Cc1ccc(NC(=O)CSc2nccc(N3CCN(c4cc(C)ccc4C)CC3)n2)cc1`: 950 s.
As for `Cc1ccc(NC(=O)N2CCC3(CC2)N=C(c2ccccc2)C(=O)N3)cc1C`, the figure is 824 s.
As for `Cc1ccn2c(NC(=O)C3CCCCC3)c(-c3ccc(F)cc3)nc2c1`, the figure is 657 s; as for `COc1ccc(Nc2c(-c3ccc(OC)cc3)nc3nc(C)cc(C)n23)cc1`, 711 s.
For the compound `Cc1ccc(C)c(C(=O)N2CCC(COc3ccc(C(=O)NC(C)C)cc3)CC2)c1`, the RP-LC retention time was 912 s.
The same measure for `COc1cccc(C2Cn3nnc(-c4nc(-c5ccccc5)no4)c3CO2)c1` (centres undefined): 1130 s.
As for `O=C(Nc1nnc(C2CC(=O)N(c3ccccc3)C2)o1)c1ccc(Cl)cc1` (centres undefined), the figure is 746 s; as for `O=C(Cn1ncc2c(c1=O)N(C1CC1)C(=O)CS2)NCc1ccco1`, 648 s; as for `COC(=O)Cn1c(=O)c2c(nc3n2CCCN3c2ccccc2)n(C)c1=O`, 761 s.
In turn, `O=C(Cc1csc(-c2ccccc2)n1)Nc1nc(-c2ccccc2Cl)cs1` gave an RP-LC retention time of 1210 s.
As for `CCC1CCCCN1C(=O)Cc1c(C)nn(-c2nc(-c3ccc(C)cc3)cs2)c1C` (centres undefined), the figure is 1380 s.
In turn, `Cc1ccc(C(=O)c2cnc3cc4c(cc3c2N2CCN(C)CC2)OCO4)cc1C` displayed an RP-LC retention time of 581 s.
The same measure for `CCCNC(=O)CSc1ccc(-n2nc3c(c2C)CCC3)nn1`: 865 s.
The same measure for `COc1cc(-c2nnc(/C=C/c3ccccc3)o2)cc(OC)c1OC`: 904 s; for `Cc1ccc2nc(-c3ccccc3O)c(Nc3ccc(Cl)cc3)n2c1`: 781 s; for `CC(C)CNC(=O)c1nc2cccnc2n(CC(C)C)c1=O`: 940 s.
